Values of other authors, collected in patent US20020193313A1, “Method of increasing the efficacy of chemotherapy in the treatment of tumors” (priority 2001, published 2002).

Key:
[1] = test system: locally advanced breast cancer; conditions: Tamoxifen to induce cell phase arrest, then estrogen to stimulate growth, 43% without synchronization
various types of cancer = conditions: in vitro
[2] = test system: advanced stages of different types of cancer; conditions: topotecan for S phase synchronization followed by doxorubicin

In the case of `CC/C(=C(\c1ccccc1)c1ccc(OCCN(C)C)cc1)c1ccccc1` [Tamoxifen], the “patients whose tumors showed favorable response to phase specific chemotherapy” value [1] is listed as “approximately 82%”.

For epidermal growth factor, the “phase of cell cycle arrest” value (in vitro breast cancer) is listed as “arrest of in vitro breast cancer in the G1 phase”.

For `NC(=O)NO` [hydrea], the “phase of cell cycle arrest” value (in vitro T-cell lymphoma) is listed as “arrest in the S phase”.

For `C=C[C@H]1C[N@@]2CC[C@H]1C[C@@H]2[C@@H](O)c1ccnc2ccc(OC)cc12` [quinidine], the “phase of cell cycle arrest” value (in vitro breast cancer) is listed as “arrest of in vitro breast cancer in the G1 phase”.

For `Cc1c(N)nc([C@H](CC(N)=O)NC[C@H](N)C(N)=O)nc1C(=O)N[C@H](C(=O)N[C@H](C)[C@@H](O)[C@H](C)C(=O)N[C@H](C(=O)NCCc1nc(-c2nc(C(=O)NCCCN[C@@H](C)c3ccccc3)cs2)cs1)[C@@H](C)O)[C@@H](O[C@@H]1O[C@@H](CO)[C@@H](O)[C@H](O)[C@@H]1O[C@H]1O[C@H](CO)[C@@H](O)[C@H](OC(N)=O)[C@@H]1O)c1c[nH]cn1` [peplomycin], the cell cycle arrest (various types of cancer) is given as “arrest the cell cycle”.

For `NC(Cn1ccc(=O)c(O)c1)C(=O)O` (stereo not shown) [mimosine], the “phase of cell cycle arrest” value (in vitro T-cell lymphoma) is listed as “arrest in the G1 phase”.

In the case of `C[C@@]1(CO)[C@H](O)CC[C@@]2(C)[C@H]1CC[C@H]1C[C@@H]3C[C@@]12CC[C@]3(O)CO` [aphidicoline], the “phase of cell cycle arrest” value (in vitro T-cell lymphoma) is listed as “arrest late in the G1 phase”.

In the case of `CC[C@@]1(O)C(=O)OCc2c1cc1n(c2=O)Cc2cc3c(CN(C)C)c(O)ccc3nc2-1` [topotecan], the hematologic toxicity [2] is listed as “increased hematologic toxicity”.

For `CC/C=C\C/C=C\C/C=C\CCCCCCCC(=O)O` [alpha linoleic acid], the “effect on tumor growth” value (tumor growth) is given as “stimulate tumor growth”.

In the case of `COC(=O)Nc1nc2ccc(C(=O)c3cccs3)cc2[nH]1` [nocodazole], the “phase of cell cycle arrest” value (in vitro T-cell lymphoma) is given as “arrest in the M-phase”.
